Test results: patent US11312715B2, “Fused ring derivative as A2A receptor inhibitor” (CSTONE PHARMACEUTICALS (SUZHOU) CO., LTD., priority 2017, dated 2022)

Key:
[1] = molecular target: T1, Human Adenosine A2a Receptor (Homo sapiens, UniProt P29274); assay: Human adenosine A2a receptor calcium flow detection experiment (FLIPR, Fluo-4, NECA agonist); assay type: cell-based; settings: A2a stable CHO cell line, antagonist mode vs NECA at EC80
T1 construct: host or cells: CHO
Method: Human Adenosine A2a Receptor Calcium Flow Detection Experiment
A2a stable cell line was constructed by Shanghai Wuxi Apptec, and the host cell was CHO.
Fluo-4 Direct kit (Invitrogen, article number: F10471). After the fluorescence detection reagent (specifically binding to calcium ions and causing an increase of fluorescence signal) in the kit was incubated with the cells for an appropriate time, the compound was added to stimulate the cells and induced changes in intracellular calcium flow, thus causing the changes in fluorescence signal, which can reflect the intensity of the agonistic or inhibiting activity of the compounds.
F12+10% fetal bovine serum+geneticin 300 μg/mL+blasticidin 2 μg/mL
Hanks balanced salt buffer (Invitrogen)+20 mM HEPES, which was prepared before each use
The compounds to be tested were dissolved in DMSO to prepare a 10 mM mother liquor. The test compound was diluted to 0.2 mM with DMSO, and the reference compound CGS-15943 was diluted to 0.015 mM with DMSO. Then a 10-point 3-fold serial dilution was performed with ECHO, then 900 nL of the dilutions was transferred to a compound plate (Greiner-781280), and 30 μL of the compound dilution buffer was added. The final initial concentration of the compounds to be tested was 1 μM and that of CGS-15943 was 0.075 μM.
Frozen A2A cells were suspended to 1×10^6 cells/mL with the culture medium after resuscitation, seeded with 20 μL/well into a 384-well polylysine coated cell plate (Greiner-781946), then incubated under 5% CO2 at 37° C. overnight.
The cell plate prepared the day before was taken out from the incubator, 20 μL 2×Fluo-4 Direct™ buffer was added into each cell, then incubated under 5% CO2 at 37° C. in an incubator for 50 minutes, and was allowed to stand at room temperature for 10 minutes.
Dilution of the agonist NECA: NECA with an initial concentration of 0.15 mM was 3-fold serially diluted with Echo to prepare 10 dilutions, and then 900 nL of the dilutions was transferred to the corresponding compound plate; then 30 μL of the compound dilution buffer was added into the corresponding compound plate. The final initial concentration was 750 nM.
FLIPR instrument and software were performed according to the set program, 10 μL of the compound dilution buffer was added into the cell plate, and the fluorescence signal was read. 10 μL of the agonist reference compound with a predetermined concentration was added to the cell plate and the fluorescence signal was read. After reading, the data were exported by “Max-Min” and “Read 90 to Maximum allowed” methods in the software, the EC80 on A2A cell line was calculated, and 6×EC80 concentration of agonist was prepared. The agonist reference compound with a concentration of 6×EC80 was prepared with buffer salt solution, and 30 μL/well was aliquoted into the corresponding compound plate for later use.
FLIPR instrument and software were performed according to the set program, 10 μL of test compounds and reference compound with a predetermined concentration was added into the cell plate, and the fluorescence signal was read. 10 μL of the agonist reference compound with a concentration of 6×EC80 was added into the cell plate and the fluorescence signal was read. For the agonist detection of the compounds, the data were exported by “Max-Min” and “Read 1 to 90” methods in the software. For the antagonist detection of the compounds, the data were exported by “Max-Min” and “Read 90 to Maximum allowed” methods in the software. The data were analyzed by GraphPad Prism 5.0 and the IC50 value of the test compounds was calculated.

[2] = Pharmacokinetic evaluation after single intravenous injection and single oral administration in mice; assay type: in vivo; settings: mouse, female Balb/C mice, plasma, single IV / single PO study; for clearance: read-out: Clearance rate; for AUC: read-out: Concentration integral AUC; for half-life: read-out: Half-life T1/2 (converted); for bioavailability: read-out: Bioavailability F
Method: Experimental materials: Balb/C mice (female, 15-30 g, 7-9 weeks old, Shanghai Linchang) were used.
Experimental method: The pharmacokinetic characteristics of the compound after intravenous injection and oral administration were tested on rodents by standard scheme, in the experiment, the candidate compounds were prepared into clear solutions and administrated to mice by single intravenous injection and single oral administration. Intravenous injection (IV) menstruum was a mixed solvent of 5% DMSO/5% polyethylene glycol hydroxystearate/90% water, and oral (PO) menstruum was a mixed solvent of 1% Tween 80, 9% PEG400 and 90% water (pH=3). The whole blood sample within 48 hours was collected, centrifuged at 3000 g at 4° C. for 15 minutes, and the supernatant was separated to obtain the plasma sample. An acetonitrile solution containing internal standard with a volume of 20 times that of the plasma sample was added to precipitate protein, the supernatant was centrifuged and an equal volume of water was added, then the supernatant was taken for injection. The blood drug concentration was quantitatively analyzed by LC-MS/MS analysis method, and the pharmacokinetic parameters such as peak concentration, peak time, clearance rate, half-life, area under the drug concentration-time curve, bioavailability, etc. were calculated.

[3] = system: mouse colon cancer CT26 cells; assay: In vivo pharmacodynamic test, CT26 subcutaneous tumor model, alone or combined with CS1003; set-up: species or system BALB/C mice; settings: CS1003 1 mg/kg intraperitoneal, Day 7, 10, 13, 16
Method: Experimental materials: BALB/C mice (female); mouse colon cancer CT26 cells (Typical Culture Preservation Commission cell bank, Chinese Academy of Sciences) were cultured in vitro in monolayer with RPMI-1640 medium containing 10% fetal bovine serum in a 37° C., 5% CO2 incubator. Trypsin-EDTA was used for routine digestion and passage. When the cells were in exponential growth phase and the saturation was 80%-90%, the cells were collected and counted.
Compound preparation: Embodiment 19 was weighted and added into the menstruum (10% PEG400+90% (10% Cremophor aqueous solution)) to prepare samples of 2.5 mg/mL, 5 mg/mL and 10 mg/mL respectively. 72 μL CS1003 (PD-1 antibody) solution (25 mg/mL) was taken and 1.728 mL Dulbecco's phosphate buffer (DPBS) was added to prepare a 1 mg/mL solution, then 16.2 mL DPBS was added to prepare a 0.1 mg/mL clear solution.
Experimental operation: the cells were resuspended in Dulbecco's phosphate buffer at a density of 3×10^6 cells/mL. 0.1 mL DPBS (containing 3×10^5 CT26 cells) was subcutaneously inoculated on the right back of each mouse. On the day of inoculation, the mice were randomly divided into groups with 9 mice each group according to the weight of the mice, then administration was started and continued for 20 days. During the whole experiment, the animals were weighed and the animal's health was monitored every day, in case of any special situation, the person in charge of the relevant project would be informed in time and the corresponding records would be made. Tumor diameter was measured twice a week with a vernier caliper. The calculation formula of the tumor volume was: V=0.5×a×b^2, wherein a and b represent the long and short diameters of the tumor respectively.
The antitumor effect of the compounds was evaluated by GI (%) or relative tumor proliferation rate T/C (%). Relative tumor proliferation rate T/C (%)=Vt/VC×100% (Vt: average tumor volume of treatment group; Vc: average tumor volume of negative control group). Vt and VC were the data on the same day. GI (%), tumor inhibition rate. GI (%)=1−Vt/VC×100%.
Statistical analysis was conducted using SPSS software based on the relative tumor volume and tumor weight at the end of the experiment. […] P<0.05 was considered as significant difference.

T1 sequence (P29274 whole entry): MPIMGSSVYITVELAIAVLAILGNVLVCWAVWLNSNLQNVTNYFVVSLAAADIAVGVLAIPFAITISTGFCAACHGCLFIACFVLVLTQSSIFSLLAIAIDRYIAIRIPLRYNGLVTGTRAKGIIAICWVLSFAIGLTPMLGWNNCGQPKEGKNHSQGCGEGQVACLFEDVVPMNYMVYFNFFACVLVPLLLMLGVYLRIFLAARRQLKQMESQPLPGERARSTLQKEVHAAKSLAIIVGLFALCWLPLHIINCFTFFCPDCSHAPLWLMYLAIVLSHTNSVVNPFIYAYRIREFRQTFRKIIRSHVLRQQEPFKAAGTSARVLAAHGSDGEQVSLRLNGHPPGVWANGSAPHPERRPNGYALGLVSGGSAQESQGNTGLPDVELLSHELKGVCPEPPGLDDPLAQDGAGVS

Molecule	IC50 [1]	other results
Cc1cc(-c2c(-c3ccc(F)cc3)nc(N)c3cncnc23)cc(Cl)n1 [Embodiment 25]	0.89 nM	–
Nc1nc(-c2ccc(F)cc2)c(-c2ccc3ncnn3c2)c2nccnc12 [Embodiment 6]	1.14 nM	clearance [2]: 5.87 mL/min/kg; AUC [2]: 24.1 µM·h; half-life [2]: 49.2 min
Nc1nc(-c2ccc(Cl)s2)c(-c2ccc3ncnn3c2)c2nccnc12 [Embodiment 32]	1.8 nM	–
Cc1cc(-c2c(-c3ccc(F)cc3)nc(N)c3nccnc23)cc(C(F)(F)F)n1 [Embodiment 10]	9.2 nM	–
Nc1nc(-c2ccc(F)cc2)c(-c2cc(Cl)nc(C(F)(F)F)c2)c2nccnc12 [Embodiment 3]	9.46 nM	bioavailability [2]: 69%; clearance [2]: 18.1 mL/min/kg; AUC [2]: 15.7 µM·h; half-life [2]: 83.4 min
Nc1nc(-c2ccc(F)cc2)c(-c2ccc3nncn3c2)c2nccnc12 [Embodiment 9]	15.6 nM	–
Cc1cc(-c2c(-c3ccc(F)cc3)nc(N)c3nccnc23)cc(Cl)n1 [Embodiment 2]	1.73 nM	bioavailability [2]: 76.2%; clearance [2]: 17.1 mL/min/kg; AUC [2]: 20.3 µM·h; half-life [2]: 46.8 min
Nc1nc(-c2ccc(F)cc2)c(-c2ccc3ncnn3c2)c2ncccc12 [Embodiment 12]	1.56 nM	bioavailability [2]: 95.4%; clearance [2]: 1.72 mL/min/kg; AUC [2]: 259 µM·h; half-life [2]: 197 min
Nc1nc(-c2ccc(F)cc2)c(-c2ccc3nccn3c2)c2nccnc12 [Embodiment 19]	0.54 nM	–
Cc1cc(-c2c(-c3ccc(F)cc3)nc(N)c3ncccc23)cc(Cl)n1 [Embodiment 24]	5.52 nM	–
Cc1cc(-c2c(-c3ccc(Cl)cc3)nc(N)c3nccnc23)cc(Cl)n1 [Embodiment 15]	3.84 nM	–
Cc1cc(-c2c(-c3ccc(Cl)s3)nc(N)c3nccnc23)cc(Cl)n1 [Embodiment 33]	24 nM	–
Nc1nc(-c2ccc(Cl)o2)c(-c2ccc3ncnn3c2)c2nccnc12 [Embodiment 30]	0.35 nM	–
Nc1nc(-c2ccc(F)cc2)c(-c2cc(Cl)c3ncnn3c2)c2nccnc12 [Embodiment 34]	1.04 nM	–
Nc1nc(-c2ccc(F)cc2)c(-c2ccc3ncncc3c2)c2nccnc12 [Embodiment 14]	0.76 nM	–
Nc1nc(-c2ccc(F)cc2)c(-c2ccc3ncccc3c2)c2nccnc12 [Embodiment 4]	0.92 nM	–
Nc1nc(-c2ccccc2)c(-c2ccc3ncnn3c2)c2ncccc12 [Embodiment 27]	0.56 nM	–
CS1003: full-length, fully humanized immunoglobulin G4 (IgG4) monoclonal antibody for PD-1 (antibody, chains of the INN, looked up, V domains shown) VH: QVQLVQSGAEVKKPGSSVKVSCKASGFTFTTYYISWVRQAPGQGLEYLGYINMGSGGTNYNEKFKGRVTITADKSTSTAYMELSSLRSEDTAVYYCAIIGYFDYWGQGTMVTVSS VL: DVVMTQSPLSLPVTLGQPASISCRSSQSLLDSDGGTYLYWFQQRPGQSPRRLIYLVSTLGSGVPDRFSGSGSGTDFTLKISRVEAEDVGVYYCMQLTHWPYTFGQGTKLEIK	–	tumor volume ([3]; 20th day after starting administration): 487.34+109.07 mm^3; tumor inhibition rate ([3]; 20th day, no significant difference vs control): 42.47%

Further molecules by falling IC50 [1], results first:

IC50 [1]	Molecule	other results
78.8 nM	Nc1nc(-c2ccc(F)cc2)c(-c2ccc3cnccc3c2)c2nccnc12 [Embodiment 18]	–
38 nM	Nc1nc(-c2ccc(F)cc2)c(-c2ccc3[nH]nc(Cl)c3c2)c2nccnc12 [Embodiment 22]	–
31.4 nM	Nc1nc(-c2ccc(F)cc2)c(-c2ccn3ncnc3c2)c2nccnc12 [Embodiment 7]	–
27.8 nM	Nc1nc(-c2ccc(F)cc2)c(-c2ccc3nccnc3c2)c2nccnc12 [Embodiment 5]	–
26.8 nM	Nc1nc(-c2ccc(F)cc2)c(-c2ccc3c(c2)CCCN3)c2nccnc12 [Embodiment 8]	–
9.4 nM	Nc1nc(-c2ccc(F)cc2)c(-c2ccc3nnccc3c2)c2nccnc12 [Embodiment 13]	–
6.1 nM	Nc1ncc2cc(-c3c(-c4ccc(F)cc4)nc(N)c4nccnc34)ccc2n1 [Embodiment 16]	–
4.77 nM	Cc1cc(-c2c(-c3ccc(F)cc3)nc(N)c3nccnc23)cc(C)n1 [Embodiment 1]	bioavailability [2]: 57.6%; clearance [2]: 16.5 mL/min/kg; AUC [2]: 16.7 µM·h; half-life [2]: 36 min
3.32 nM	Nc1nc(-c2ccc(F)cc2)c(-c2ccc3[nH]ncc3c2)c2nccnc12 [Embodiment 20]	–
3.18 nM	Cn1ccc(-c2nc(N)c3nccnc3c2-c2ccc3ncnn3c2)n1 [Embodiment 29]	–
1.79 nM	Cc1cc(-c2c(-c3ccc(F)cc3)nc(N)c3cccnc23)cc(Cl)n1 [Embodiment 11]	–
1.03 nM	Cc1cc(-c2c(-c3ccc(C)o3)nc(N)c3nccnc23)cc(Cl)n1 [Embodiment 28]	–
0.95 nM	Nc1nc(-c2ccc(F)cc2)c(-c2ccc3ncsc3c2)c2nccnc12 [Embodiment 23]	–
0.92 nM	Nc1nc(-c2ccc(F)cc2)c(-c2cc(Cl)c3ncccc3c2)c2nccnc12 [Embodiment 26]	–
0.82 nM	Nc1nc(-c2ccc(F)cc2)c(-c2cc(Cl)c3[nH]ncc3c2)c2nccnc12 [Embodiment 21]	–
0.8 nM	Nc1nc(-c2ccc(F)cc2)c(-c2cc(F)c3ncccc3c2)c2nccnc12 [Embodiment 17]	–
0.58 nM	Cc1ccc(-c2nc(N)c3nccnc3c2-c2ccc3ncnn3c2)o1 [Embodiment 31]	–
